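Five concentrations, 48 hours, 96-well plates. TGI: total growth inhibition.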
Experiments:
Assay in all cases: DTP human tumour cell line panel, 48 h
786-0 renal = tested on: 786-0 renal
A498 renal = tested on: A498 renal
A549 NSCLC = tested on: A549 NSCLC
ACHN renal = tested on: ACHN renal
BT-549 breast = tested on: BT-549 breast
CAKI-1 renal = tested on: CAKI-1 renal
CCRF-CEM leukemia = tested on: CCRF-CEM leukemia
COLO 205 colon = tested on: COLO 205 colon
DU-145 prostate = tested on: DU-145 prostate
EKVX NSCLC = tested on: EKVX NSCLC
HCT-116 colon = tested on: HCT-116 colon
HCT-15 colon = tested on: HCT-15 colon
HL-60(TB) leukemia = tested on: HL-60(TB) leukemia
HOP-62 NSCLC = tested on: HOP-62 NSCLC
HOP-92 NSCLC = tested on: HOP-92 NSCLC
HS 578T breast = tested on: HS 578T breast
HT29 colon = tested on: HT29 colon
IGROV1 ovarian = tested on: IGROV1 ovarian
K-562 leukemia = tested on: K-562 leukemia
KM12 colon = tested on: KM12 colon
LOX IMVI melanoma = tested on: LOX IMVI melanoma
M14 melanoma = tested on: M14 melanoma
MALME-3M melanoma = tested on: MALME-3M melanoma
MCF7 breast = tested on: MCF7 breast
MDA-MB-231 breast = tested on: MDA-MB-231 breast
MDA-MB-435 = tested on: MDA-MB-435
MDA-N = tested on: MDA-N
MOLT-4 leukemia = tested on: MOLT-4 leukemia
NCI-H226 lung = tested on: NCI-H226 lung
NCI-H23 lung = tested on: NCI-H23 lung
NCI-H460 lung = tested on: NCI-H460 lung
NCI-H522 lung = tested on: NCI-H522 lung
NCI/ADR-RES ovarian = tested on: NCI/ADR-RES ovarian
OVCAR-3 ovarian = tested on: OVCAR-3 ovarian
OVCAR-4 ovarian = tested on: OVCAR-4 ovarian
OVCAR-5 ovarian = tested on: OVCAR-5 ovarian
OVCAR-8 ovarian = tested on: OVCAR-8 ovarian
PC-3 prostate = tested on: PC-3 prostate
RXF 393 renal = tested on: RXF 393 renal
SF-268 CNS = tested on: SF-268 CNS
SF-295 CNS = tested on: SF-295 CNS
SF-539 CNS = tested on: SF-539 CNS
SK-MEL-2 melanoma = tested on: SK-MEL-2 melanoma
SK-MEL-28 melanoma = tested on: SK-MEL-28 melanoma
SK-MEL-5 melanoma = tested on: SK-MEL-5 melanoma
SK-OV-3 ovarian = tested on: SK-OV-3 ovarian
SN12C renal = tested on: SN12C renal
SNB-19 CNS = tested on: SNB-19 CNS
SNB-75 CNS = tested on: SNB-75 CNS
SR leukemia = tested on: SR leukemia
SW-620 colon = tested on: SW-620 colon
T-47D breast = tested on: T-47D breast
TK-10 renal = tested on: TK-10 renal
U251 CNS = tested on: U251 CNS
UACC-257 melanoma = tested on: UACC-257 melanoma
UACC-62 melanoma = tested on: UACC-62 melanoma
UO-31 renal = tested on: UO-31 renal
HCC-2998 colon = tested on: HCC-2998 colon
RPMI-8226 leukemia = tested on: RPMI-8226 leukemia

SMILES: NC1C2C(CC(=O)O)OCC=C3CN4CCC1(C(=O)C(=O)O)C4CC32 (stereo not given)
- TGI (786-0 renal): > 100 µM
- TGI (A498 renal): > 100 µM
- TGI (A549 NSCLC): > 100 µM
- TGI (ACHN renal): > 100 µM
- TGI (BT-549 breast): > 100 µM
- TGI (CAKI-1 renal): > 100 µM
- TGI (CCRF-CEM leukemia): > 100 µM
- TGI (COLO 205 colon): > 100 µM
- TGI (DU-145 prostate): > 100 µM
- TGI (EKVX NSCLC): > 100 µM
- TGI (HCT-116 colon): > 100 µM
- TGI (HCT-15 colon): > 100 µM
- TGI (HL-60(TB) leukemia): > 100 µM
- TGI (HOP-62 NSCLC): > 100 µM
- TGI (HOP-92 NSCLC): > 100 µM
- TGI (HS 578T breast): > 100 µM
- TGI (HT29 colon): > 100 µM
- TGI (IGROV1 ovarian): > 100 µM
- TGI (K-562 leukemia): > 100 µM
- TGI (KM12 colon): > 100 µM
- TGI (LOX IMVI melanoma): > 100 µM
- TGI (M14 melanoma): > 100 µM
- TGI (MALME-3M melanoma): > 100 µM
- TGI (MCF7 breast): > 100 µM
- TGI (MDA-MB-231 breast): > 100 µM
- TGI (MDA-MB-435): > 100 µM
- TGI (MDA-N): > 100 µM
- TGI (MOLT-4 leukemia): > 100 µM
- TGI (NCI-H226 lung): > 100 µM
- TGI (NCI-H23 lung): > 100 µM
- TGI (NCI-H460 lung): > 100 µM
- TGI (NCI-H522 lung): > 100 µM
- TGI (NCI/ADR-RES ovarian): > 100 µM
- TGI (OVCAR-3 ovarian): > 100 µM
- TGI (OVCAR-4 ovarian): > 100 µM
- TGI (OVCAR-5 ovarian): > 100 µM
- TGI (OVCAR-8 ovarian): > 100 µM
- TGI (PC-3 prostate): > 100 µM
- TGI (RXF 393 renal): > 100 µM
- TGI (SF-268 CNS): > 100 µM
- TGI (SF-295 CNS): > 100 µM
- TGI (SF-539 CNS): > 100 µM
- TGI (SK-MEL-2 melanoma): > 100 µM
- TGI (SK-MEL-28 melanoma): > 100 µM
- TGI (SK-MEL-5 melanoma): > 100 µM
- TGI (SK-OV-3 ovarian): > 100 µM
- TGI (SN12C renal): > 100 µM
- TGI (SNB-19 CNS): > 100 µM
- TGI (SNB-75 CNS): > 100 µM
- TGI (SR leukemia): > 100 µM
- TGI (SW-620 colon): > 100 µM
- TGI (T-47D breast): > 100 µM
- TGI (TK-10 renal): > 100 µM
- TGI (U251 CNS): > 100 µM
- TGI (UACC-257 melanoma): > 100 µM
- TGI (UACC-62 melanoma): > 100 µM
- TGI (UO-31 renal): > 100 µM

SMILES: N#CC(C#N)=Cc1c(O)ccc2ccccc12
- TGI (786-0 renal): 33 µM
- TGI (A498 renal): 31.1 µM
- TGI (A549 NSCLC): 38 µM
- TGI (ACHN renal): 23.9 µM
- TGI (BT-549 breast): 32.1 µM
- TGI (CAKI-1 renal): 29.1 µM
- TGI (CCRF-CEM leukemia): 5.17 µM
- TGI (COLO 205 colon): 44.5 µM
- TGI (DU-145 prostate): 27.8 µM
- TGI (EKVX NSCLC): 26.3 µM
- TGI (HCC-2998 colon): 33.1 µM
- TGI (HCT-116 colon): 30.9 µM
- TGI (HCT-15 colon): 37.5 µM
- TGI (HL-60(TB) leukemia): 15.7 µM
- TGI (HOP-62 NSCLC): 50.2 µM
- TGI (HOP-92 NSCLC): 23.4 µM
- TGI (HS 578T breast): 55.5 µM
- TGI (HT29 colon): 41.1 µM
- TGI (IGROV1 ovarian): 39.4 µM
- TGI (K-562 leukemia): 24.6 µM
- TGI (KM12 colon): 33.3 µM
- TGI (LOX IMVI melanoma): 26.6 µM
- TGI (M14 melanoma): 28.3 µM
- TGI (MALME-3M melanoma): 39.8 µM
- TGI (MCF7 breast): 34.3 µM
- TGI (MDA-MB-231 breast): 30.4 µM
- TGI (MDA-MB-435): 30 µM
- TGI (MDA-N): 30.5 µM
- TGI (NCI-H226 lung): 50 µM
- TGI (NCI-H23 lung): 26.9 µM
- TGI (NCI-H460 lung): 36.7 µM
- TGI (NCI-H522 lung): 29.2 µM
- TGI (NCI/ADR-RES ovarian): 64.7 µM
- TGI (OVCAR-3 ovarian): 27.4 µM
- TGI (OVCAR-4 ovarian): 43.6 µM
- TGI (OVCAR-5 ovarian): 31.7 µM
- TGI (OVCAR-8 ovarian): 36.4 µM
- TGI (PC-3 prostate): 33.6 µM
- TGI (RPMI-8226 leukemia): 38.6 µM
- TGI (RXF 393 renal): 31.2 µM
- TGI (SF-268 CNS): 33.1 µM
- TGI (SF-295 CNS): 29.5 µM
- TGI (SF-539 CNS): 29.1 µM
- TGI (SK-MEL-2 melanoma): 37.8 µM
- TGI (SK-MEL-28 melanoma): 28.9 µM
- TGI (SK-MEL-5 melanoma): 26.2 µM
- TGI (SK-OV-3 ovarian): 34.7 µM
- TGI (SN12C renal): 27.3 µM
- TGI (SNB-19 CNS): 30.5 µM
- TGI (SNB-75 CNS): 17.9 µM
- TGI (SR leukemia): 13.6 µM
- TGI (SW-620 colon): 34.5 µM
- TGI (T-47D breast): 46.4 µM
- TGI (TK-10 renal): 32.2 µM
- TGI (U251 CNS): 32.5 µM
- TGI (UACC-257 melanoma): 32.6 µM
- TGI (UACC-62 melanoma): 31.1 µM
- TGI (UO-31 renal): 28.5 µM
